Measurements taken from patent US11634425B2, “Pharmaceutical compounds” (priority 2019, dated 2023).
In brackets after ≈: the same amount, converted by molar mass. Read-outs that look alike come from different tables or passages of the source.

Legend:
RSV A2 = experiment: RSV plaque reduction assay; assay type: cell-based, respiratory syncytial virus (RSV); details: mean of at least two experiments
How it was run: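 RSV A2 at 100 PFU/well was premixed with eight compound dilutions and added to confluent Hep-G2 monolayers for 2 h at 37 °C. Cells were then kept 2 days under a DMEM/2% FBS/0.8% CMC overlay containing compound. Immunostained plaques were counted relative to virus controls, and EC50 came from 4-parameter fits, averaged over at least two experiments.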

Cell cytotoxicity (CC50) = assay type: cell-based; details: human; mean of at least two experiments
How it was run: (§1)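 Values are means of ≥2 independent runs, rounded to whole units, from 4-parameter variable-slope curve fits. Toxicity measured in Hep-G2 cells run alongside RSV plaque-reduction assays.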

Thermodynamic solubility = assay type: physicochemical; details: aqueous buffer, thermodynamic from solid; typically phosphate buffered saline pH 7.4, ambient temperature overnight
Experimental: Test compound (2.5 mg of solid; n=1) was weighed in an amber glass vial and buffer (0.5 mL) was added (typically phosphate buffered saline pH 7.4). The solution was agitated at ambient temperature overnight using a vial roller system. The solution was then filtered (0.45 μm pore size; without pre-saturation). Duplicate aliquots (50 μL) are sampled from the filtrate and diluted with one volume of Milli-Q water and methanol (1:1 v/v) before analysis by HPLC-UV. A standard was prepared in DMSO at 10 mg/mL (n=1) which was then diluted 10-fold in Milli-Q water and methanol (1:1 v/v) to give a 1 mg/mL solution. The concentration of test compound in the filtrate was quantified relative to the concentration standard. Analysis was performed using a gradient HPLC-MS system.

in vitro [1] = assay type: in vitro ADME; details: 1 μM compound, 0.5 mg/mL protein; for half-life at 1 μM: microsomes, pH 7.4, read-out: Liver Microsomal Stability t1/2
How it was run: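 Pooled liver microsomes (0.5 mg/mL protein) in 0.1 M phosphate pH 7.4 with 1 μM compound and 1 mM NADPH at 37° C., sampled at 0–45 min; minus-NADPH control at 45 min. Acetonitrile quench, LC-MS/MS; t1/2 and CLint from ln peak-area ratio vs time slope.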

in vitro [2] = assay type: in vitro ADME; details: hepatocytes, 3 μM compound, read-out: Liver Hepatocyte Stability t1/2
Experimental: Compounds were subjected to the following assays to investigate liver microsomal stability and hepatocyte stability.
Hepatocyte Incubation: Experimental Procedure
Cryopreserved pooled hepatocytes were purchased from a reputable commercial supplier and stored in liquid nitrogen prior to use. Williams E media supplemented with 2 mM L-glutamine and 25 mM HEPES and test compound (final substrate concentration 3 μM; final DMSO concentration 0.25%) are pre-incubated at 37° C. prior to the addition of a suspension of cryopreserved hepatocytes (final cell density 0.5×10^6 viable cells/mL in Williams E media supplemented with 2 mM L-glutamine and 25 mM HEPES) to initiate the reaction. The final incubation volume is 500 μL. Two control compounds were included with each species, alongside appropriate vehicle control. The reactions are stopped by transferring 50 μL of incubate to 100 μL acetonitrile containing internal standard at the appropriate time points. Samples were removed at 6 time points (0, 5, 15, 30, 45 and 60 min) over the course of a 60 min experiment. The termination plates are centrifuged at 2500 rpm at 4° C. for 30 min to precipitate the protein. Following protein precipitation, the sample supernatants were combined in cassettes of up to 4 compounds and analysed using generic LC-MS/MS conditions. From a plot of ln peak area ratio (compound peak area/internal standard peak area) against time, the gradient of the line is determined. Subsequently, half-life (t1/2) and intrinsic clearance (CLint) were calculated.

in vivo = assay type: in vivo; details: male Beagle dog
Experimental: The pharmacokinetics of compounds were studied in vivo in dogs at doses of 0.5 mg/kg (IV) and 4 mg/kg (PO).
Male Beagle dogs were treated with experimental compounds via intravenous administration (n=2; 0.5 mg/kg) or oral administration (n=2; 3 or 4 mg/kg). Compounds were formulated as a solution in 20% dimethylacetamide/80% (2-hydroxypropyl)-β-cyclodextrin (20% w/v) (IV administration) or a solution in 10% dimethylacetamide/90% (2-hydroxypropyl)-β-cyclodextrin (20% w/v) (PO administration). […] Serial blood samples were collected from the jugular vein at 0.03, 0.08, 0.25, 0.5, 1, 2, 4, 6, 8 and 24 h post IV dosing of compound, and at 0.08, 0.25, 0.5, 1, 2, 4, 6, 8 and 24 h post oral dosing of compound, and plasma was prepared by centrifugation and stored immediately at −80° C. Samples were subsequently thawed, prepared for analysis by protein precipitation with acetonitrile, and analysed by tandem LCMS using electrospray ionisation using a matrix-matched calibration curve. PK parameters were calculated from the resulting data.

RSV = details: Antimicrobial Agents and Chemotherapy, September 2007, 3346-3353; cited from earlier work
Hep-G2 cells = experiment: Cell cytotoxicity (CC50); assay type: cell-based; details: mean of at least two experiments
How it was run: as §1

[3] = human respiratory syncytial virus, HepG2, Hep-G2 cells

Row | Compound | EC50 (RSV A2; [3]) | CC50 (Cell cytotoxicity (CC50)) | solubility thermodynamic (Thermodynamic solubility) | half-life at 1 μM (in vitro [1]; dog) | half-life at 1 μM (in vitro [1]; human) | half-life at 1 μM (in vitro [1]; rat) | half-life at 3 μM (in vitro [2]; dog) | half-life at 3 μM (in vitro [2]; human) | half-life at 3 μM (in vitro [2]; rat) | EC50 (RSV A2; Hep-G2 cells) | CC50 (Hep-G2 cells) | Liver Microsomal Stability t1/2 (in vitro [1]; dog) | Liver Microsomal Stability t1/2 (in vitro [1]; human) | Liver Microsomal Stability t1/2 (in vitro [1]; rat) | further results
1 | Cc1nc2ccc(Cl)nn2c1C(=O)N[C@H]1N=C(c2ccccc2)c2cccc(F)c2NC1=O [Example 20, 6-Chloro-N-[(3S)-9-fluoro-2-oxo-5-phenyl-1,3-dihydro-1,4-benzodiazepin-3-yl]-2-methylimidazo[1,2-b]pyridazine-3-carboxamide] | 114 nM | > 25000 nM | 3.84 µM (≈ 1.78 µg/mL) | > 2.33 h | > 2.33 h | 1.68 h | 2.2 h | 2.18 h | 2.92 h |  |  |  |  |  | Vd (in vivo; in vivo, IV 0.5 mg/kg): 1.2 L/kg; clearance (in vivo; in vivo, IV 0.5 mg/kg): 1.6 mL/min/kg; Cmax (in vivo; in vivo, IV 0.5 mg/kg / PO 3 or 4 mg/kg study): 3850 ng/mL; half-life (in vivo; in vivo, IV 0.5 mg/kg, read-out: IV t1/2 (converted)): 10.3 h; AUC(0-t) (in vivo; in vivo, PO 3 or 4 mg/kg, read-out: PO AUClast): 43700 ng·h/mL; half-life (in vivo; in vivo, PO 3 or 4 mg/kg, read-out: PO t1/2 (converted)): 19.2 h; C 8 h (in vivo; 8 h, IV 0.5 mg/kg / PO 3 or 4 mg/kg study): 1581 ng/mL; F (in vivo; IV 0.5 mg/kg, PO 3 or 4 mg/kg): 118%
2 | Cc1nc2ccc(Cl)nn2c1C(=O)N[C@H]1N=C(c2ccccc2)c2ccccc2NC1=O [Example 21, 6-Chloro-2-methyl-N-[(3S)-2-oxo-5-phenyl-1,3-dihydro-1,4-benzodiazepin-3-yl]imidazo[1,2-b]pyridazine-3-carboxamide] | 147 nM | > 25000 nM | 4.64 µM (≈ 2.06 µg/mL) | 2.95 h | 2.15 h | 1.04 h | 2.55 h | 2.52 h | 1.5 h |  |  |  |  |  | 
3 | O=C(Nc1ccccc1F)N[C@H]1N=C(c2ccccc2)c2ccccc2NC1=O [RSV604] |  |  |  |  |  |  |  |  |  |  |  |  |  |  | anti-RSV activity (RSV): sub-micromolar
4 | 2-[2-Methyl-6-(propan-2-ylamino)pyridin-3-yl]-N-[(3S)-9-fluoro-2-oxo-5-phenyl-1,3-dihydro-1,4-benzodiazepin-3-yl]pyrazolo[1,5-a]pyrimidine-3-carboxamide [Example 61] |  |  |  |  |  |  |  |  |  | 25 nM | > 25000 nM | 0.392 h | 2.2 h | 1.07 h | 
5 | N-[(3S)-9-Fluoro-2-oxo-5-phenyl-1,3-dihydro-1,4-benzodiazepin-3-yl]-2-(2-fluorophenyl)-7-methylpyrazolo[1,5-a]pyrimidine-3-carboxamide [Example 38] |  |  |  |  |  |  |  |  |  | 27 nM | > 25000 nM | 2.75 h | > 2.33 h | 1.98 h | 
6 | 2-[4-Methyl-6-(propan-2-ylamino)pyridin-3-yl]-N-[(3S)-9-fluoro-2-oxo-5-phenyl-1,3-dihydro-1,4-benzodiazepin-3-yl]pyrazolo[1,5-a]pyrimidine-3-carboxamide [Example 62] |  |  |  |  |  |  |  |  |  | 74 nM | > 25000 nM | 0.828 h | > 2.33 h | 1.19 h | 
